The NIST ThermoML archive (doi:10.1016/j.fluid.2012.08.023)
± gives the expanded uncertainty stated by the source.

Conditions: Liquid, Closed cell (Static) method

Row | vapor or sublimation pressure (268.13 K) [kPa] | vapor or sublimation pressure (278.36 K) [kPa] | vapor or sublimation pressure (288.16 K) [kPa] | vapor or sublimation pressure (298.13 K) [kPa] | SMILES
1 | 91 ± 12 | 134.6 ± 12 | 192.9 ± 12 | 268.8 ± 12 | FC(F)(F)C(F)(F)C(F)(F)C(F)(F)F [decafluorobutane]
2 | 3648.5 ± 22 | 4611.2 ± 26 |  |  | C=C [ethene]
